Data on 16 molecules can be found in patent EP0904260B1, “INHIBITION OF MATRIX METALLOPROTEASES BY 2-(OMEGA-AROYLALKYL)-4-BIARYL-OXOBUTYRIC ACIDS” (Bayer Corporation, priority 1996, dated 1997).

In one assay the target is T1, MMP-9 (Homo sapiens, UniProt P14780).
T1 construct: made in house
The class given is biochemical. The following applies: 6 µM P218 substrate, approximately 0.5 to 0.8 nM MMP, 25 min. at 37°C, pH 6.5. The text has this:
(§1) The P218 quenched fluorescence assay (Microfluorometric Profiling Assay) is a modification of that originally described by Knight, et al., FEBS Lett. 296, 263, 1992 for a related substance and a variety of matrix metalloproteinases (MMPs) in cuvettes. The assay was run with each invention compound and the three MMPs. MMP-3, MMP-9 and MMP-2, analyzed in parallel. adapted as follows for a 96-well microtiter plate and a Hamilton AT® workstation.
(§2) P218 Fluorogenic Substrate: P218 is a synthetic substrate containing a 4-acetyl-7-methoxycoumarin ( MCA) group in the N-terminal position and a 3-[2,4-dinitrophenyl]-L-2,3-diaminopropionyl (DPA) group internally. This is a modification of a peptide reported by Knight (1992) that was used as a substrate for matrix metalloptoteinases. Once the P218 peptide is cleaved (putative clip site at the Ala-Leu bond), the fluorescence of the MCA group can be detected on a fluorometer with excitation at 328 nm and emission at 393 nm. P218 is currently being produced by BACHEM Bioscience, Inc.exclusively for the Bayer Corporation. P218 has the structure: [formula]
Recombinant Human Pro-MMP-9: Human pro-gelatinase B (pro-MMP-9) derived from U937 cDNA as described by Wilhelm, et al. J. Biol. Chem. 264, 17213, 1989 was expressed as the full-length form using a baculovirus protein expression system. The pro-enzyme was purified using methods previously described by Hibbs, et al. J. Biol. Chem. 260, 2493, 1984.
Activation of Pro-MMP-9: […] 20 µg/mL in 50 mM Tris at pH 7.4, 10mM […], 150 mM NaCl, and 0.005% Brij-35 (MMP-9 activation buffer) was activated by incubation with 0 5 mM p-aminophenylmercuric acetate (APMA) for 3.5 h at 37 °C. The enzyme was dialyzed against the same buffer to remove the APMA.
(§3) Hamiltion Microlab AT Plus: The MMP-Profiling Assay was performed robotically on a Hamilton MicroLab AT Plus®. The Hamilton was programmed to: (1) serially dilute up to 11 potential inhibitors automatically from a 2.5 mM stock in 100% DMSO; (2) distribute substrate followed by inhibitor into a 96 well Cytofluor plate; and (3) add a single enzyme to the plate with mixing to start the reaction. Subsequent plates for each additional enzyme were prepared automatically by beginning the program at the substrate addition point, remixing the diluted inhibitors and beginning the reaction by addition of enzyme. In this way, all MMP assays were done using the same inhibitor dilutions.
(§4) Millipore Cytofluor II. Following incubation, the plate was read on a Cytofluor II fluoromeiric plate reader with excitation at 340 nm and emission at 395 nm with the gain set at 80.
(§5) Microfluorometric Reaction Buffer (MRB): Dilution of test compounds, enzymes, and P218 substrate for the microfluorometric assay were made in microfluorometric reaction buffer consisting of 50 mM 2-(N-morpholino)ethanesulfonic acid (MES) at pH 6.5 with 10 mM CaCl2, 150 mM NaCl. 0.005% Brij-35 and 1% DMSO.
(§6) MMP Microfluorometric Profiling Assay. The assay was done with a final substrate concentration of 6 µM P218 and approximately 0.5 to 0.8 nM MMP with variable drug concentrations. The Hamilton was programmed to serially dilute up to 11 compounds from a 2.5 mM stock (100% DMSO) to 10x the final compounds concentrations in the assay. Initially, the instrument delivered various amounts of microfluorometric reaction buffer (MRB) to a 96 tube rack of 1 mL Marsh dilution tubes. The instrument then picked up 20 µL of inhibitor (2.5 mM) from the sample rack and mixes it with a buffer in row A of the Marsh rack, resulting in a 50 µM drug concentration. The inhibitors were then serially diluted to 10, 5, 1, .2, 0.05 and 0.01 µM. […] The instrument re-mixed and loads 14.5 µL of diluted compound from rows A to G in the Marsh rack to corresponding rows in the microtiter plate. (Row H represents the "background" row and 39.5 µL of MRB was delivered in placed of drug or enzyme). […]

The next assay deals with T2, MMP-3 (Homo sapiens, UniProt P08254).
T2 construct: made in house; host or cells: CHO cells
The class given is biochemical. To be noted: 6 µM P218 substrate, approximately 0.5 to 0.8 nM MMP, 25 min. at 37°C, pH 6.5.
Text: as §1, §2
Recombinant Human CHO Pro-MMP-3: Human CHO pro-stromelysin-257 (pro-MMP-3) was expressed and purified as described by Housley, et al., J. Biol. Chem. 268, 4481, 1993.
Activation of Pro-MMP-3: Pro-MMP-3 at 1.72 µM (100 µg/mL) in 5 mM Tris at pH 7.5, 5 mM CaCl2, 25 mM NaCl, and 0.005% Brij-35 (MMP-3 activation buffer) was activated by incubation with TPCK (N-tosyl-(L)-phenylalanine chioromethyl ketone) trypsin (1:100 w/w to pro-MMP-3) at 25 °C for 30 min. The reaction was stopped by addition of soybean trypsin inhibitor (SBTI; 5:1 w/w to trypsin concentration). This activation protocol results in the formation of 45 kDa active MMP-3, which still contains the C-tenninal portion of the enzyme.
as §3, §4, §5, §6

Another assay deals with T3, MMP-2 (Homo sapiens, UniProt P08253).
T3 sequence (P08253 110-660): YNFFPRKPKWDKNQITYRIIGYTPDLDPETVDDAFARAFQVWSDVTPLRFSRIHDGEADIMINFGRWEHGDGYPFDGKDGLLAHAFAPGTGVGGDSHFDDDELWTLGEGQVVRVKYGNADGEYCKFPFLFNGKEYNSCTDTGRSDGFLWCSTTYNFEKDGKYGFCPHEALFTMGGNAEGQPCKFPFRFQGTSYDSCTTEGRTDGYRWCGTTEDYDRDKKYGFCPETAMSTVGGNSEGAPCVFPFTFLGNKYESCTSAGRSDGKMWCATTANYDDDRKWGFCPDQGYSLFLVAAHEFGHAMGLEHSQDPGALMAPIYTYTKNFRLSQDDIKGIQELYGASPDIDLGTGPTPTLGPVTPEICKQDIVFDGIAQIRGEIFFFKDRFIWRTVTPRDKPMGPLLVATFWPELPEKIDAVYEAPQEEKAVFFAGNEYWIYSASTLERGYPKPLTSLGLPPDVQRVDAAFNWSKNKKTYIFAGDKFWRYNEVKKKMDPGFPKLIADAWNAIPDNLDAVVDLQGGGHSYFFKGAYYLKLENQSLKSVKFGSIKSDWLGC
As to the kind of experiment: biochemical.

Each structure is given as a SMILES string. pIC50: −log10 of the molar value.

In general, pIC50 refers to −log10 of the IC50, conventionally taken in molar units.

T1 sequence (P14780 107-707 limits assumed): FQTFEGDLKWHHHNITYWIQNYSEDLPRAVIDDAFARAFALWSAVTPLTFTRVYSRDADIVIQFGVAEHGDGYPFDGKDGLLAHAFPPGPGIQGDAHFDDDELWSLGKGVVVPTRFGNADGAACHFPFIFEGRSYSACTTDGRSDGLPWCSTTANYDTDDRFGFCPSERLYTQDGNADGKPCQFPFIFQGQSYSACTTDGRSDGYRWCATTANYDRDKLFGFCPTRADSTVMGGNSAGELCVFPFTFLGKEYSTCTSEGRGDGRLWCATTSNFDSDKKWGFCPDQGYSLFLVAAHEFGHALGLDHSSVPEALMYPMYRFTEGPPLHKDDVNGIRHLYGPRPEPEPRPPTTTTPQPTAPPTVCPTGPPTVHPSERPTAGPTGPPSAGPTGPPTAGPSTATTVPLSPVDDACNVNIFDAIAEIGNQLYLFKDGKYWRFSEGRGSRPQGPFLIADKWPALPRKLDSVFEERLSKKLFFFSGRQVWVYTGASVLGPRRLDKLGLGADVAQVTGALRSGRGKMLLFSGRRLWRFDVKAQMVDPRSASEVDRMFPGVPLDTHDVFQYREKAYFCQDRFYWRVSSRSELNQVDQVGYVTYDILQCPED
T2 sequence (P08254 100-477): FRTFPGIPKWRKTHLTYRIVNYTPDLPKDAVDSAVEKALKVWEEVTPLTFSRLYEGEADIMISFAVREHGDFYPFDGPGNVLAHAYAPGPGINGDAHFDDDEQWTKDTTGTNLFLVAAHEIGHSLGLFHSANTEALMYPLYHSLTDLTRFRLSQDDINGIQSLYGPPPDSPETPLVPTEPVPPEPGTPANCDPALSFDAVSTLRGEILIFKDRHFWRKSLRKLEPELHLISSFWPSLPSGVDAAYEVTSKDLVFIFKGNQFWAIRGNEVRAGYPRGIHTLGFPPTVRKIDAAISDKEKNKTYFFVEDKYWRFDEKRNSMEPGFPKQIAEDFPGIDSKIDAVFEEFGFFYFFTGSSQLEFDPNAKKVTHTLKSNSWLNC

Consider `COc1ccc(C(=O)CCCC(CC(=O)c2ccc(-c3ccc(Cl)cc3)cc2)C(=O)O)cc1` (stereo not drawn) [Compound X, 4'-chloro-α-[4-(4-methoxyphenyl)-4-oxobutyl]-γ-oxo-[1,1'-biphenyl]-4-butanoic acid], for which the pIC50 at MMP-9 was 6.84; on MMP-3, 6.91; against MMP-2, 7.60.

On to `CC(C)c1ccc(C(=O)CCCC(CC(=O)c2ccc(-c3ccc(Cl)cc3)cc2)C(=O)O)cc1` (stereo not drawn) [Compound XV, 4'-chloro-α-[4-[4-(1-methylethyl)phenyl]-4-oxobutyl]-γ-oxo-[1,1'-biphenyl]-4-butanoic acid], for which the pIC50 against MMP-9 was 6.88; on MMP-3 it was 6.89; at MMP-2 it was 7.45.

`COc1ccccc1C(=O)CCCC(CC(=O)c1ccc(-c2ccc(Cl)cc2)cc1)C(=O)O` (stereo not drawn) [Compound XVI, 4'-chloro-α-[4-(2-methoxyphenyl)-4-oxobutyl]-γ-oxo-[1,1'-biphenyl]-4-butanoic acid]: the pIC50 was 6.82 at MMP-9, 7.32 against MMP-3 and 7.58 at MMP-2.

With `O=C(CCCC(CC(=O)c1ccc(-c2ccc(Cl)cc2)cc1)C(=O)O)c1ccccc1` (stereo not drawn) [I, 4'-chloro-y-oxo-α-(4-oxo-4-phenylbutyl)-[1,1'-biphenyl]-4-butanoic acid], the results for the pIC50 against MMP-9, at MMP-3 and against MMP-2 were 7.18, 7.19 and 8.00, respectively.

Turning to `O=C(CCC(CC(=O)c1ccc(-c2ccc(Cl)cc2)cc1)C(=O)O)c1ccccc1` (stereo not drawn) [II, 4'-chloro-y-oxo-α-(3-oxo-3-phenylpropyl)-[1,1'-biphenyl]-4-butanoic acid], the pIC50 against MMP-9 was 6.90; against MMP-3, 7.02; against MMP-2 it was 8.02.

Consider `O=C(CCCCC(CC(=O)c1ccc(-c2ccc(Cl)cc2)cc1)C(=O)O)c1ccccc1` (stereo not drawn) [III, 4'-chloro-γ-oxo-α-(5-oxo-5-phenylpentyl)-[1,1'-biphenyl]-4-butanoic acid], for which the pIC50 on MMP-9 was 7.28; against MMP-3, 7.21; on MMP-2, 8.12.

Regarding `O=C(CCCCCC(CC(=O)c1ccc(-c2ccc(Cl)cc2)cc1)C(=O)O)c1ccccc1` (stereo not drawn) [IV, 4'-chloro-γ-oxo-α-(6-oxo-6-phenylhexyl)-[1,1'-biphenyl]-4-butanoic acid], the pIC50 at MMP-9 was 6.76; against MMP-3, 6.96; at MMP-2 it was 7.47.

Turning to `O=C(CCCC(CC(=O)c1ccc(-c2ccc(Cl)cc2)cc1)C(=O)O)c1ccc(Br)cc1` (stereo not drawn) [IX], the pIC50 on MMP-9 was 6.88; on MMP-3, 6.90; on MMP-2, 7.55.

Consider `Cc1ccc(C(=O)CCCC(CC(=O)c2ccc(-c3ccc(Cl)cc3)cc2)C(=O)O)cc1` (stereo not drawn) [VIII, 4'-chloro-α-[4-(4-methylphenyl)-4-oxobutyl]-γ-oxo-[1,1'-biphenyl]-4-butanoic acid], for which the pIC50 at MMP-9 was 6.97; against MMP-3 it was 7.16; on MMP-2, 7.72.

Take `O=C(CCCC(CC(=O)c1ccc(-c2ccc(Cl)cc2)cc1)C(=O)O)c1ccc(Oc2ccccc2)cc1` (stereo not drawn) [VII]: the pIC50 against MMP-9 was 7.18; at MMP-3, 6.44; against MMP-2 it was 6.88.

As for `Cc1cc(C)c(C(=O)CCCC(CC(=O)c2ccc(-c3ccc(Cl)cc3)cc2)C(=O)O)c(C)c1` (stereo not drawn) [VI], the results for the pIC50 against MMP-9, at MMP-3 and against MMP-2 were 5.88, 7.40 and 7.51, respectively.

Regarding `COc1cc(OC)c(C(=O)CCCC(CC(=O)c2ccc(-c3ccc(Cl)cc3)cc2)C(=O)O)c(OC)c1` (stereo not drawn) [V], the pIC50 at MMP-9 is 6.88; against MMP-3, 7.14; against MMP-2, 8.09.

Regarding `COc1ccc(C(=O)CCCC(CC(=O)c2ccc(-c3ccc(Cl)cc3)cc2)C(=O)O)c(OC)c1` (stereo not drawn) [XII, 4'-chloro-α-[4-(2,4-dimethoxyphenyl)-4-oxobutyl]-γ-oxo-[1,1'-biphenyl]-4-butanoic acid], the pIC50 on MMP-9 is 6.65; against MMP-3 it was 6.94; at MMP-2, 7.60.

Consider `CC(C)(C)c1ccc(C(=O)CCCC(CC(=O)c2ccc(-c3ccc(Cl)cc3)cc2)C(=O)O)cc1` (stereo not drawn) [XIII], for which the pIC50 against MMP-9 is 6.78; at MMP-3, 6.65; on MMP-2 it was 7.15.

For `CCc1ccc(C(=O)CCCC(CC(=O)c2ccc(-c3ccc(Cl)cc3)cc2)C(=O)O)cc1` (stereo not drawn) [XIV, 4'-chloro-α-[4-(4-ethylphenyl)-4-oxobutyl]-γ-oxo-[1,1'-biphenyl]-4-butanoic acid], the pIC50 at MMP-9 is 6.90; against MMP-3 it was 7.05; on MMP-2 it was 7.53.

As to `Cc1ccc(C(=O)CCCC(CC(=O)c2ccc(-c3ccc(Cl)cc3)cc2)C(=O)O)cc1C` (stereo not drawn) [XI], the pIC50 was 6.98 against MMP-9, 6.98 against MMP-3 and 7.32 against MMP-2.
